# Test results reported in US9992981B2, “Optogenetic control of reward-related behaviors” (The Board of Trustees of the Leland Stanford Junior …, priority 2010, dated 2018).
# Read-outs that look alike come from different tables or passages of the source.
# B1: NpHR: halorhodopsin from Natronomonas pharaonis (protein, UniProt P15647 1-291, looked up)
# Halorhodopsin: MTETLPPVTESAVALQAEVTQRELFEFVLNDPLLASSLYINIALAGLSILLFVFMTRGLDDPRAKLIAVSTILVPVVSIASYTGLASGLTISVLEMPAGHFAEGSSVMLGGEEVDGVVTMWGRYLTWALSTPMILLALGLLAGSNATKLFTAITFDIAMCVTGLAAALTTSSHLMRWFWYAISCACFLVVLYILLVEWAQDAKAAGTADMFNTLKLLTVVMWLGYPIVWALGVEGIAVLPVGVTSWGYSFLDIVAKYIFAFLLLNYLTSNESVVSGSILDVPSASGTPADD
# B2: BR: opsin for inhibition, biological origin Halobacterium helobium (protein, UniProt P02945 14-262, looked up)
# Bacteriorhodopsin: QAQITGRPEWIWLALGTALMGLGTLYFLVKGMGVSDPDAKKFYAITTLVPAIAFTMYLSMLLGYGLTMVPFGGEQNPIYWARYADWLFTTPLLLLDLALLVDADQGTILALVGADGIMIGTGLVGALTKVYSYRFVWWAISTAAMLYILYVLFFGFTSKAESMRPEVASTFKVLRNVTVVLWSAYPVVWLIGSEGAGIVPLNIETLLFMVLDVSAKVGFGLILLRSRAIFGEAEAPEPSAGDGAAATSD
# Experiments:
# MSNs = experiment: IPSCs in MSNs during photostimulation of ChR2-expressing ChAT neurons in acute NAc slices; format: cell-based, mice
# Description: Coronal cerebral brain slices were prepared from adult mice with virus previously injected (>2 weeks prior to slicing), using standard techniques in strict accordance with a protocol approved by the Animal Care and Use Committee at Stanford University. Coronal slices 250 μm thick were cut with a vibratome using a sapphire blade in ice cold N-methyl-D-glucamine (NMDG)-based cutting solution containing 135 mM NMDG, 1 mM KCl, 1.2 mM KH2PO4, 20 mM choline bicarbonate, 10 mM glucose, 1.5 mM MgCl2 and 0.5 mM CaCl2. Slices were maintained thereafter in artificial cerebral spinal fluid (ACSF) containing 119 mM NaCl, 2.5 mM KCl, 2.5 mM CaCl2, 1.3 mM MgCl2, 1 mM NaH2PO4, 26.2 mM NaHCO3 and 11 mM glucose. Slices were maintained in ACSF at 37° C. for 30 minutes, and thereafter at room temperature. ACSF was bubbled constantly with 95% O2/5% CO2 and heated to 34° C. for all experiments. Neurons were visualized on an upright microscope (Leica DM-LFSA) equipped with both DIC optics and a filter set for visualizing eYFP using a ×40 water-immersion objective and a charge-coupled device (CCD) camera. Whole-cell recordings were made from neurons using the electrode solution containing 120 mM potassium gluconate, 20 mM HEPES, 10 mM EGTA, 1 mM MgCl2, 2 mM Na-ATP, and 0.2 mM Na-GTP (pH 7.3, 290 mOsm/L); in experiments recording IPSCs, KCl was used to replace potassium gluconate. Pipette resistances were 3-5 MΩ, and recordings were made without series resistance compensation. Membrane potentials have been corrected for the error resulting from the liquid junction potentials. The holding potential (VM) for voltage-clamp experiments was −70 mV. […] […] Photocurrents were evoked using an optical switch with a 300W xenon lamp and either a 470±20 nm or a 580±20 nm bandpass filters; light power at the specimen was 11.52 mW mm^−2 (470 nm) or 10.64 mW mm^−2 (580 nm). Currents filtered at 2 kHz, digitized at 50 kHz, and recorded to disk using pClamp10 software (Axon Instruments).
# [1] = after 15 minutes, cited from earlier work
# [2] = system: ChAT interneurons of the NAc; experiment: Conditioned place preference (CPP); format: in vivo, mice
# ChAT neurons = experiment: Cocaine response of ChAT cells in slice (spontaneous firing); format: cell-based, mice; settings: 5 μM cocaine bath, at 10 min; baseline 0.60±0.41 Hz; n=7
# Description: Coronal cerebral brain slices were prepared from adult mice with virus previously injected (>2 weeks prior to slicing), using standard techniques in strict accordance with a protocol approved by the Animal Care and Use Committee at Stanford University. Coronal slices 250 μm thick were cut with a vibratome using a sapphire blade in ice cold N-methyl-D-glucamine (NMDG)-based cutting solution containing 135 mM NMDG, 1 mM KCl, 1.2 mM KH2PO4, 20 mM choline bicarbonate, 10 mM glucose, 1.5 mM MgCl2 and 0.5 mM CaCl2. Slices were maintained thereafter in artificial cerebral spinal fluid (ACSF) containing 119 mM NaCl, 2.5 mM KCl, 2.5 mM CaCl2, 1.3 mM MgCl2, 1 mM NaH2PO4, 26.2 mM NaHCO3 and 11 mM glucose. Slices were maintained in ACSF at 37° C. for 30 minutes, and thereafter at room temperature. ACSF was bubbled constantly with 95% O2/5% CO2 and heated to 34° C. for all experiments. Neurons were visualized on an upright microscope (Leica DM-LFSA) equipped with both DIC optics and a filter set for visualizing eYFP using a ×40 water-immersion objective and a charge-coupled device (CCD) camera. […] Currents filtered at 2 kHz, digitized at 50 kHz, and recorded to disk using pClamp10 software (Axon Instruments).
# [3] = Wavelength sensitivity of identified opsins (Tables 1 and 2); settings: Table 1, opsins for inhibition
molecule,measurement,setting,value
CNC1(C)C2CCC(C2)C1(C)C (centres unmarked) [mecamylamine],IPSC frequency with light and mecamylamine,"MSNs; 10 μM mecamylamine, light alone raised 3.4+/−1.3 Hz to 10.1+/−1.2 Hz, 470 nm, 10 Hz",5.1+/−1.8 Hz
same,effect on light-evoked increase of IPSC frequency,"MSNs; n=5, P<0.05",attenuated
"COC(=O)[C@H]1[C@@H](OC(=O)c2ccccc2)C[C@@H]2CC[C@H]1N2C [cocaine, benzoylmethylecgonine]",cocaine in the brain,[1]; i.p. 10 mg/kg,4.7 µM
same,cocaine in the brain,[1]; i.p. 20 mg/kg,9.4 µM
same,"Conditioned side (min), total time on cocaine-paired side on testing day","[2]; ChAT::Cre+ (eNphR3.0 inhibition paired with cocaine), 10 mg/kg",10.3 min
same,"Conditioned side (min), total time on cocaine-paired side on testing day","[2]; ChAT::Cre+ (eNphR3.0 inhibition paired with cocaine), 20 mg/kg",10.7 min
same,"Conditioned side (min), total time on cocaine-paired side on testing day","[2]; ChAT::Cre+ (eNphR3.0 inhibition paired with cocaine), 40 mg/kg",10.5 min
same,"Conditioned side (min), total time on cocaine-paired side on testing day","[2]; ChAT::Cre− control littermates, 10 mg/kg",8.5 min
same,"Conditioned side (min), total time on cocaine-paired side on testing day","[2]; ChAT::Cre− control littermates, 20 mg/kg",14.2 min
same,"Conditioned side (min), total time on cocaine-paired side on testing day","[2]; ChAT::Cre− control littermates, 40 mg/kg",9.2 min
same,firing rate of ChAT neurons after cocaine,ChAT neurons,1.74±0.56 Hz
Br.COc1ccc(-c2ccc(=N)n(CCCC(=O)O)n2)cc1 [SR-95531],effect on light-evoked synaptic currents in MSN,"MSNs; SR-95531 (5 mM), NBQX and RS-CPP present",blocked
B1,Wavelength Sensitivity (max),[3],589 nm max
B2,Wavelength Sensitivity (max),[3],570 nm max
